Test results as given in US20250084041A1, “ANTIMICROBIAL COMPOUNDS AND METHODS” (Curza Global, LLC, priority 2021, published 2025).
Counter-ions that a name gives are not always drawn. Like-named read-outs stand apart in the source and are kept apart here.

Tests used:
S. aureus (Sa) = experiment: Broth microdilution MIC, S. aureus; type: cell-based; settings: for MIC: Staphylococcus aureus, read-out: Sa + bicarb 25 (MIC)
Experimental: (§1) A certified BSL-2 laboratory was used for testing. Compounds were evaluated using the broth microdilution minimum inhibitory concentration (MIC) and minimum bactericidal concentration (MBC) assays defined by Clinical and Laboratory Standards Institute (CLSI) in the M26-A guideline against S. aureus (Sa), E. coli (Ec), K. pneumoniae (Kp), A. baumannii (Ab), E. faecalis (Ef) and P. aeruginosa (Pa).
(§2) MICs were determined using the Clinical Laboratory and Standards Institute (CLSI) Broth Microdilution Method with slight modification. Clinical and Laboratory Standards Institute (2012). “Methods for dilution antimicrobial susceptibility tests for bacteria that grow aerobically; approved standard, 9th ed. M07-A9. Clinical and Laboratory Standards Institute, Wayne, PA.” Serial two-fold dilutions of compounds are prepared in sterile clear round-bottom 96-well plates.
(§3) To prepare microdilution trays, two-fold dilutions of antimicrobial agent are prepared in growth medium: Cation-Adjusted Mueller-Hinton Broth (CAMHB), or CAMHB supplemented with sodium bicarbonate (25 mM final concentration prepared from a 1.0 M stock solution) or CAMHB supplemented with heat inactivated human serum (Fisher Cat. #BP2657100) 0-50% by adding 200 μL of the highest concentration to be tested (64 μg/mL, for example) in row A, mixing and transferring 100 μL from row A to 100 μL growth medium in row B, then repeating the mixing and transferring through row H of the 96-well plate, discarding the excess 100 μL remaining. This slight modification to the CLSI protocol enables evaluation of MICs for 3 compounds per plate in triplicate, albeit with only 8 compound dilutions (CLSI protocol enables 2 compounds in triplicate with 10 dilutions). Bacterial suspensions are added to a final concentration of 5×10^4 CFU/well by adding 5 μL of a 1:10 dilution of a 0.5 McFarland suspension (1×10^8 CFU/mL) for each bacterium evaluated. Bacterial suspensions were prepared using the growth method described by CLSI. Well-isolated colonies (3-5 from an agar plate) were selected using a sterile loop and used to inoculate a tube containing 4 mL of CAMHB. The cultures are incubated at 35±2° C. until it achieves or exceeds the turbidity of the 0.5 McFarland standard, determined by measuring A600nm (usually two to six hours). When growth exceeds a 0.5 McFarland standard, the turbidity is adjusted with broth to be equivalent to a 0.5 McFarland standard.

E. coli (Ec) = experiment: Broth microdilution MIC, E. coli; type: cell-based; settings: for MIC: Escherichia coli, read-out: E. coli + bicarb 25 (MIC)
Experimental: as §1, §2, §3

P. aeruginosa (Pa) = experiment: Broth microdilution MIC, P. aeruginosa; type: cell-based; settings: for MIC: Pseudomonas aeruginosa, read-out: Pa + bicarb 25 (MIC)
Experimental: as §1, §2, §3

A. baumannii (Ab) = experiment: Broth microdilution MIC, A. baumannii; type: cell-based; settings: for MIC: Acinetobacter baumannii, read-out: Ab + bicarb 25 (MIC)
Experimental: as §1, §2, §3

E. faecalis (Ef) = experiment: Broth microdilution MIC, E. faecalis; type: cell-based; settings: Enterococcus faecalis, read-out: Ef + bicarb 25 (MIC)
Experimental: as §1, §2, §3

E. coli S30 extract = experiment: E. coli S30 extract: inhibition of bacterial protein synthesis (luciferase); type: biochemical; settings: 37° C. 1 hour
Experimental: E. coli S30 extract: Inhibition of bacterial protein synthesis was determined using the E. coli S30 Extract System for Circular DNA (Promega catalog #L-2010) and Luciferase Assay Reagent (Promega catalog #E1500) with slight modifications to a published protocol. Fyfe, C., Sutcliffe, J. A. and Grossman, T. H. (2012) “Development and characterization of a Pseudomonas aeruginosa in vitro coupled transcription-translation assay system for evaluation of translation inhibitors” J. Microbiol. Methods 90(3), 256-261.
Compounds were serial diluted in 0.5 mL microcentrifuge tubes by mixing and transferring 50 μL from the highest concentration to 50 μL of water, mixing and transferring 50 μL of this 2-fold dilution to 50 μL of water. This mixing and transferring was repeated so that there are a total of 8 tubes with serial dilutions of compound at 10× the desired screening concentration that are ultimately diluted to 1× by the addition of S30 luciferase synthesis mixture. Serial dilutions of compounds were added (2 μL) to wells in a black round bottom 96-well plate. Water (2 μL) was used as a “no inhibitor” control in 4 wells/plate. No DNA control reaction mixture (20 μL; see below) was used as a control in 4 wells/plate for background luminescence. S30 luciferase synthesis mixture (18 μL; see below) was added to wells with compounds or water mixture and incubated at 37° C. for 1 hour. Reactions were stopped by transferring to 4° C. refrigerator for 5 minutes then 25 μL of luciferase activity mix was added. Luminescence was measured using a BioTek Synergy HTX plate reader. % Inhibition was determined relative to no inhibitor controls.
• 445 μL S30 extract, circular • 712 μL S30 Premix without amino acids • 4.45 μL pBESTluc™ DNA (1 μg/μL) • 78 μL complete amino acid mixture • 267 μL water
• 20 μL S30 extract, circular • 32 μL S30 Premix without amino acids • 7 μL complete amino acid mixture • 21 μL water

[1] = molecular target: Rabbit Reticulocyte Lysate; experiment: Rabbit Reticulocyte Lysate: inhibition of eukaryotic protein synthesis (luciferase); type: biochemical; settings: 30° C. 90 minutes, read-out: Retic. IC50
Experimental: Inhibition of eukaryotic protein synthesis was determined using the Rabbit Reticulocyte Lysate System, Nuclease-Treated from Promega (catalog #L-4960) with slight modifications to the manufacturer's protocol. Compounds were serial diluted in 0.5 mL microcentrifuge tubes by mixing and transferring 50 μL from the highest concentration to 50 μL of water, mixing and transferring 50 μL of this 2-fold dilution to 50 μL of water. This mixing and transferring was repeated so that there are a total of 8 tubes with serial dilutions of compound at 10× the desired screening concentration that are ultimately diluted to 1× by the addition of rabbit reticulocyte luciferase synthesis mixture. Serial dilutions of compounds were added ([…]) to wells in a black round bottom 96-well plate. Water (2.5 μL) was used as a “no inhibitor” control in 4 wells/plate. No RNA control reaction mixture ([…]; see below) was used as a control in 4 wells/plate for background luminescence. Rabbit reticulocyte luciferase synthesis mixture (22.5 μL; see below) was added to wells with compounds or water mixture and incubated at 30° C. for 90 minutes. Luciferase assay reagent (25 μL) was added with luminescence measured using a BioTek Synergy HTX plate reader. % Inhibition was determined relative to no inhibitor controls.
• 1,000 μL rabbit reticulocyte lysate • 5.7 μL Luciferase Control RNA (1 μg/μL) • 26 μL complete amino acid mixture • 395 μL water
• 70 μL rabbit reticulocyte lysate • 2 μL complete amino acid mixture • 28 μL water

[2] = S. aureus, CAMHB supplemented with sodium bicarbonate 25 mM
[3] = E. coli, CAMHB supplemented with sodium bicarbonate 25 mM
[4] = P. aeruginosa, CAMHB supplemented with sodium bicarbonate 25 mM
[5] = E. faecalis, CAMHB supplemented with sodium bicarbonate 25 mM

Row | SMILES | MIC (S. aureus (Sa)) [µg/mL] | MIC (E. coli (Ec)) [µg/mL] | MIC (P. aeruginosa (Pa)) [µg/mL] | MIC (A. baumannii (Ab)) [µg/mL] | MIC (E. faecalis (Ef)) [µg/mL] | IC50 (E. coli S30 extract) [nM] | IC50 [1] [nM] | MIC (S. aureus (Sa); [2]) [µg/mL] | MIC (E. coli (Ec); [3]) [µg/mL] | MIC (P. aeruginosa (Pa); [4]) [µg/mL] | MIC (A. baumannii (Ab); A. baumannii, CAMHB supplemented with sodium bicarbonate 25 mM) [µg/mL] | MIC (E. faecalis (Ef); [5]) [µg/mL] | Sa + bicarb 25 (MIC) (S. aureus (Sa); [2]) | E. coli + bicarb 25 (MIC) (E. coli (Ec); [3]) | Pa + bicarb 25 (MIC) (P. aeruginosa (Pa); [4]) | IC50 (E. coli S30 extract; hydrochloride salt) [nM] | Ab + bicarb 25 (MIC) (A. baumannii (Ab); A. baumannii, CAMHB supplemented with sodium bicarbonate 25 mM, hydrochloride salt)
1 | CC(C)(N)C(=O)N1CCN(C(=O)Nc2ccn(C3=CCC(CN4CC[C@@H](CN)C4)CC3)c(=O)n2)CC1 (stereo in doubt) [Compound 24, (R)-4-(2-Amino-2-methylpropanoyl)-N-(1-(4-((3-(aminomethyl)pyrrolidin-1-yl)methyl)cyclohex-1-en-1-yl)-2-oxo-1,2-dihydropyrimidin-4-yl)piperazine-1-carboxamide hydrochloride salt] | < 8 | < 8 | > 32 | > 32 | > 32 | < 500 | ≥ 1000 | – | – | – | – | – | – | – | – | – | –
2 | CC(C)(N)C(=O)N1CCN(C(=O)Nc2ccn(C3CCC(CN(CCF)C4CCC(N)CC4)CC3)c(=O)n2)CC1 (stereo in doubt) [Compound 48, trans-cis-4-(2-Amino-2-methylpropanoyl)-N-(1-(4-(((4-aminocyclohexyl)(2-fluoroethyl)amino)methyl)cyclohexyl)-2-oxo-1,2-dihydropyrimidin-4-yl)piperazine-1-carboxamide hydrochloride salt] | 8 to 32 | 8 to 32 | > 32 | > 32 | 8 to 32 | < 500 | ≥ 1000 | – | – | – | – | – | – | – | – | – | –
3 | CC(C)(N)C(=O)N1CCN(C(=O)Nc2ccn(C3=CCC(CN[C@H]4CC[C@H](N)CC4)CC3)c(=O)n2)CC1 (stereo partly drawn) [Compound 1, 4-(2-Amino-2-methylpropanoyl)-N-(1-(4-(((trans-4-aminocyclohexyl)amino)methyl)cyclohex-1-en-1-yl)-2-oxo-1,2-dihydropyrimidin-4-yl)piperazine-1-carboxamide hydrochloride salt] | < 8 | < 8 | > 32 | > 32 | 8 to 32 | < 500 | ≥ 1000 | – | – | – | – | – | – | – | – | – | –
4 | CC(C)(N)C(=O)N1CCN(C(=O)Nc2ccn(C3=CCC(CN4C[C@@H]5[C@@H](CN)[C@@H]5C4)CC3)c(=O)n2)CC1 (stereo partly drawn) [Compound 2, 4-(2-Amino-2-methylpropanoyl)-N-(1-(4-((exo-6-(aminomethyl)-3-azabicyclo[3.1.0]hexan-3-yl)methyl)cyclohex-1-en-1-yl)-2-oxo-1,2-dihydropyrimidin-4-yl)piperazine-1-carboxamide hydrochloride salt] | – | – | – | – | – | < 500 | ≥ 1000 | < 8 | < 8 | > 32 | > 32 | < 8 | – | – | – | – | –
5 | CC(C)(N)C(=O)N1CCN(C(=O)Nc2ccn(C3=CCC(CN[C@H]4CC[C@H](N)C4)CC3)c(=O)n2)CC1 (stereo partly drawn) [Compound 3, 4-(2-Amino-2-methylpropanoyl)-N-(1-(4-((((1S,3S)-3-aminocyclopentyl)amino)methyl)cyclohex-1-en-1-yl)-2-oxo-1,2-dihydropyrimidin-4-yl)piperazine-1-carboxamide hydrochloride salt] | < 8 | < 8 | > 32 | > 32 | > 32 | < 500 | ≥ 1000 | – | – | – | – | – | – | – | – | – | –
6 | CC(C)(N)C(=O)N1CCN(C(=O)Nc2ccn(C3=CCC(CN4CCCC(N)CC4)CC3)c(=O)n2)CC1 (centres unmarked) [Compound 4, 4-(2-Amino-2-methylpropanoyl)-N-(1-(4-((4-aminoazepan-1-yl)methyl)cyclohex-1-en-1-yl)-2-oxo-1,2-dihydropyrimidin-4-yl)piperazine-1-carboxamide hydrochloride salt] | < 8 | < 8 | > 32 | > 32 | < 8 | < 500 | ≥ 1000 | – | – | – | – | – | – | – | – | – | –
7 | CC(C)(N)C(=O)N1CCN(C(=O)Nc2ccn(C3CCC(CN4C[C@@H]5[C@@H](N)[C@@H]5C4)CC3)c(=O)n2)CC1 (stereo partly drawn) [Compound 5, 4-(2-Amino-2-methylpropanoyl)-N-(1-(4-((exo-6-amino-3-azabicyclo[3.1.0]hexan-3-yl)methyl)cyclohexyl)-2-oxo-1,2-dihydropyrimidin-4-yl)piperazine-1-carboxamide hydrochloride salt] | – | – | – | 8 to 32 | < 8 | – | ≥ 1000 | – | – | – | – | – | +++ (An MIC value (μg/mL) that is less than 8 μg/mL) | +++ (An MIC value (μg/mL) that is less than 8 μg/mL) | + (An MIC value (μg/mL) that is 32 μg/mL or greater) | < 500 | –
8 | CC(C)(N)C(=O)N1CCN(C(=O)Nc2ccn(C3CCC(CN4C[C@@H]5[C@@H](N)[C@@H]5C4)CC3)c(=O)n2)CC1 (stereo partly drawn) [Compound 6, 4-(2-Amino-2-methylpropanoyl)-N-(1-(cis-4-((exo-6-amino-3-azabicyclo[3.1.0]hexan-3-yl)methyl)cyclohexyl)-2-oxo-1,2-dihydropyrimidin-4-yl)piperazine-1-carboxamide hydrochloride salt] | – | – | – | – | – | – | ≥ 1000 | < 8 | < 8 | > 32 | – | 8 to 32 | – | – | – | ≥ 1000 | + (An MIC value (μg/mL) that is 32 μg/mL or greater)
